Data from patent US5985894A, “N-substituted quinolines” (Hoechst Marion Roussel, priority 1991, dated 1999).
pIC50: −log10 of the molar value.

Assays:
Angiotensin II Receptor = target: T1, Angiotensin II Receptor (Rattus norvegicus, UniProt P25095); assay: Test on the Angiotensin II Receptor (displacement of 125I angiotensin II, rat liver membranes); format: binding; details: pH 7.4, 25° C., 150 minutes
T1 construct: A fresh membrane preparation obtained from the liver of a rat was used; from tissue; host or cells: rat liver, fresh membrane preparation
T1 sequence (P25095 1-359): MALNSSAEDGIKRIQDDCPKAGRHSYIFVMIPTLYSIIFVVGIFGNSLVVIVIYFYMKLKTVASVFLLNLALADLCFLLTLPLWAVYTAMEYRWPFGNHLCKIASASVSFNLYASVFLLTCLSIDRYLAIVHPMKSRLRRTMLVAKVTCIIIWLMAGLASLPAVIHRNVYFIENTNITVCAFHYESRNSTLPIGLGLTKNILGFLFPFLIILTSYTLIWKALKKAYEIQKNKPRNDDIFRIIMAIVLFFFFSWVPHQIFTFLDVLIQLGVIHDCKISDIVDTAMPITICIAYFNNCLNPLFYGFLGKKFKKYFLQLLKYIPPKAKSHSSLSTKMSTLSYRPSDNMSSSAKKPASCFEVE
Protocol: 1) Test on the Angiotensin II Receptor
A fresh membrane preparation obtained from the liver of a rat was used and the tissue was ground up in a polytron in a Tris 50 mM pH 7.4 buffer. After being ground up, the tissue was centrifuged 3 times at 30,000 g for 15 minutes with intermediate taking up of the deposits in the Tris pH 7.4 buffer. The last deposits were suspended in a pH 7.4 incubation buffer (Tris 20 mM, NaCl 135 mM, KCl 10 mM, glucose 5 mM, MgCl2 10 mM, phenyl methyl sulfonyl fluoride 0.3 mM, bacitracine 0.1 mM (0.2% bovine albumin serum). 2 ml aliquoted fractions were divided into hemolysis tubes and ^125 I angiotensin II (25,000 DPM/tube) and the product to be studied were added. The product has first tested at 3×10^-5 M in triplicate. When the test product displaced more than 50% of the radioactivity linked specifically to the receptor, it was tested again according to a range of 7 concentrations to determine the concentration that inhibited the radioactivity linked specifically to the receptor by 50%. In this way, the 50% inhibiting concentration was determined.
The non-specific bond was determined by the addition of the product of Example 94 of the European Patent No. 0,253,310 at 10^-5 M (in triplicate). The deposit was incubated at 25° C. for 150 minutes, put back in a water bath at 0° C. for 5 minutes, filtered under vacuum, rinsed with Tris pH 7.4 buffer and the radioactivity was counted in the presence of scintillating Triton. The results were expressed directly as a 50% inhibiting concentration (IC50), that is to say as a concentration of product studied, expressed in nM, necessary to displace 50% of the specific radioactivity fixed on the receptor studied.

angiotensin II = assay: Test for antagonistic activity of angiotensin II on a demedullated rat; format: in vivo, Male Sprague-Dawley rats; details: iv, 5 min, pressure effect of angiotensin II 0.75 micrograms/kg, compound injected (jugular vein) 5 minutes before, read-out: 50% inhibiting dose
Protocol: 3) Test for Antagonistic Activity of Angiotensin II on a Demedullated Rat
Male Sprague-Dawley rats weighing 250 to 350 g were anaesthetized by an intraperitoneal injection of sodium pentobarbital (60 mg/kg). The diastolic arterial pressure was recorded using a heparinated catheter (PE50) introduced into the left carotid of the animal, and connected to a pressure calculator (Gould, Pressure Processor) by a Gould pressure sensor. A catheter was introduced into the right jugular vein of the animal for the injection of the molecules to be studied. The animal was placed under assisted respiration and a bilateral section of the pneumogastric nerves was carried out. The rat was then demedullated. After a sufficient period of stabilization, the study of the antagonism of the compounds vis-a-vis angiotensin II (Ciba Hypertensin) was carried out in the following manner.
1--Three consecutive injections of angiotensin II (0.75 micrograms/kg) spaced out over 15 minutes allowed a reproducible and stable pressure response to be obtained.
2--While keeping a time period of 15 minutes for the administration of angiotensin II, the molecules to be studied were injected 5 minutes before angiotensin II.
The pressure effects of angiotensin II in the presence of the antagonist were expressed as a percentage of the pressure effects of angiotensin II administered on its own. The 50% inhibiting dose of the effect studied was determined. Each animal was considered as its own control and the results are in the following Table

[1] = tested on: angiotensin II on the isolated portal vein; assay: Antagonistic activity of angiotensin II on the isolated portal vein; format: cell-based, male Wistar rats; details: isolated rat portal vein, angiotensin II 3.10^-8 M, compound 15 minutes before; read-out: IC50 (50% inhibition of the response to angiotensin)
Protocol: The portal vein was removed from male Wistar rats weighing about 350 g (IFFA Credo France) after cervical dislocation, and put rapidly into a physiological solution (see below) at ambient temperature. A ring of about 1 mm was mounted in a bath with an isolated element containing 20 ml of the following physiological solution (composition in mM: NaCl 118.3-KCl 4.7-MgSO4 1.2-KH2 PO4 1.2-NaHCO3 25-glucose 11.1-CaCl2 2.5). The medium was maintained at 37° C. and oxygenated with a mixture of O2 95%, CO2 5%. The initial pressure imposed was 1 g and the rings were left at rest for 60 to 90 minutes. To avoid spontaneous contractions, verapamil was added to the incubation bath (1.10^-6 M). At the end of the rest period, angiotensin II (Ciba hypertensis) 3.10^-8 M were added to the incubation bath and left in contact with the preparation for one minute. This operation was repeated every 30 minutes with the tissue being washed 3 or 4 times between two stimulations with angiotensin. The compound to be studied was introduced into the bath 15 minutes before a new stimulation with angiotensin. As increasing concentrations of the molecule were used, an IC50 (concentration that produced a 50% inhibition of the response to angiotensin) was calculated, expressed in nanomoles.

[2] = Passive avoidance test (scopolamine amnesia); format: in vivo, Male mice (CD1 Charles River); details: s.c., 24 hours after treatment

SMILES | pIC50 (Angiotensin II Receptor) | pIC50 [1] | ED50 (angiotensin II) [mg/kg] | PERCENTAGE OF INCREASE IN THE LATENCY TIME RELATIVE TO THE CONTROLS ([2]; dose 0.1 μg/kg) [%] | PERCENTAGE OF INCREASE IN THE LATENCY TIME RELATIVE TO THE CONTROLS ([2]; dose 1 μg/kg) [%] | PERCENTAGE OF INCREASE IN THE LATENCY TIME RELATIVE TO THE CONTROLS ([2]; dose 10 μg/kg) [%] | PERCENTAGE OF INCREASE IN THE LATENCY TIME RELATIVE TO THE CONTROLS ([2]; dose 25 μg/kg) [%] | PERCENTAGE OF INCREASE IN THE LATENCY TIME RELATIVE TO THE CONTROLS ([2]; dose 100 μg/kg) [%] | PERCENTAGE OF INCREASE IN THE LATENCY TIME RELATIVE TO THE CONTROLS ([2]; dose 250 μg/kg) [%] | PERCENTAGE OF INCREASE IN THE LATENCY TIME RELATIVE TO THE CONTROLS ([2]; dose 1000 μg/kg) [%] | PERCENTAGE OF INCREASE IN THE LATENCY TIME RELATIVE TO THE CONTROLS ([2]; dose 0.25 μg/kg) [%] | PERCENTAGE OF INCREASE IN THE LATENCY TIME RELATIVE TO THE CONTROLS ([2]; dose 2.5 μg/kg) [%]
CCCCc1cn(Cc2ccc(-c3ccccc3C(=O)O)cc2)c2ccccc2c1=O [Example 4, 4'-[(3-butyl-1,4-dihydro-4-oxo-1-quinolinyl)-methyl](1,1'-biphenyl)-2-carboxylic acid] | 6.74 | 7.02 | 7.55 | – | – | – | – | – | – | – | – | –
CCCCc1cn(Cc2ccc(-c3ccccc3C(=O)O)cc2)c2ccc(C)cc2c1=O [Example 58] | – | – | – | 3 | 29 | 112 | 110 | 129 | – | – | – | –
CCCCc1cn(Cc2ccc(-c3ccccc3C(=O)O)cc2)c2c(c1=O)CCCC2 [Example 22, 4'-[(3-butyl-1,4,5,6,7,8-hexahydro-4-oxo-1-quinolinyl)-methyl](1,1'-biphenyl)-2-carboxylic acid] | 7.05 | – | 1 | – | – | 8 | 26 | 66 | 128 | 127 | – | –
CCCCc1cn(Cc2ccc(-c3ccccc3C(=O)O)cc2)c2c(C(=O)O)cccc2c1=O [Example 30] | 7.27 | – | 0.21 | – | 23 | 37 | 65 | 91 | 144 | 126 | – | –
CCCCc1cn(Cc2ccc(-c3ccccc3C(=O)O)cc2)c2cc(CC(=O)O)ccc2c1=O [Example 50] | – | – | 0.61 | 20 | 84 | 190 | 225 | 149 | – | – | 31 | 93
CCCCc1cn(Cc2ccc(-c3ccccc3C(=O)O)cc2)c2cc(CCC(=O)O)ccc2c1=O [Example 38] | – | – | – | 1 | 57 | 118 | 132 | 131 | 101 | 158 | – | –
CCCCc1cn(Cc2ccccc2CC(=O)O)c2ccccc2c1=O [Example 56] | – | – | – | – | – | 24 | 49 | 98 | 105 | 122 | – | –

More lines, main results first:

pIC50 (Angiotensin II Receptor) | pIC50 [1] | SMILES | ED50 (angiotensin II) [mg/kg] | PERCENTAGE OF INCREASE IN THE LATENCY TIME RELATIVE TO THE CONTROLS ([2]; dose 0.1 μg/kg) [%] | PERCENTAGE OF INCREASE IN THE LATENCY TIME RELATIVE TO THE CONTROLS ([2]; dose 1 μg/kg) [%] | PERCENTAGE OF INCREASE IN THE LATENCY TIME RELATIVE TO THE CONTROLS ([2]; dose 10 μg/kg) [%] | PERCENTAGE OF INCREASE IN THE LATENCY TIME RELATIVE TO THE CONTROLS ([2]; dose 25 μg/kg) [%] | PERCENTAGE OF INCREASE IN THE LATENCY TIME RELATIVE TO THE CONTROLS ([2]; dose 100 μg/kg) [%] | PERCENTAGE OF INCREASE IN THE LATENCY TIME RELATIVE TO THE CONTROLS ([2]; dose 250 μg/kg) [%] | PERCENTAGE OF INCREASE IN THE LATENCY TIME RELATIVE TO THE CONTROLS ([2]; dose 1000 μg/kg) [%] | PERCENTAGE OF INCREASE IN THE LATENCY TIME RELATIVE TO THE CONTROLS ([2]; dose 0.25 μg/kg) [%] | PERCENTAGE OF INCREASE IN THE LATENCY TIME RELATIVE TO THE CONTROLS ([2]; dose 2.5 μg/kg) [%]
7.13 | – | CCCCc1cn(Cc2ccc(-c3ccccc3C(=O)O)cc2)c2c(Br)cccc2c1=O [Example 18, 4'-[(3-butyl-1,4-dihydro-8-bromo-4-oxo-1-quinolinyl)-methyl](1,1'-biphenyl)2-carboxylic acid] | 3.9 | – | – | – | – | – | – | – | – | –
8.06 | – | CCCCc1cn(Cc2ccc(-c3ccccc3-c3nn[nH]n3)cc2)c2cc(C(=O)N3CCCC3)ccc2c1=O [Example 52] | 0.23 | – | – | – | – | – | – | – | – | –
7.04 | 7.51 | CCCCc1cn(Cc2ccc(-c3ccccc3C(=O)O)cc2)c2cc(C(=O)O)ccc2c1=O [Example 10, 3-butyl-1-[[2'-carboxy-(1,1'-biphenyl)-4-yl]-methyl]-1,4-dihydro-4-oxo-7-quinoline carboxylic acid] | 1.27 | – | – | – | – | – | – | – | – | –
7.10 | 7.50 | CCCCc1cn(Cc2ccc(-c3ccccc3C(=O)O)cc2)c2cc(C(=O)N3CCCC3)ccc2c1=O [Example 16] | 1.2 | – | – | – | – | – | – | – | – | –
– | 7.31 | CCCCc1cn(Cc2ccc(-c3ccccc3C(=O)O)cc2)c2cc(CO)ccc2c1=O [Example 12] | 3.76 | – | – | – | – | – | – | – | – | –
6.40 | 7.18 | CCCCc1cn(Cc2ccc(-c3ccccc3C(=O)O)cc2)c2ccccc2c1=S [Example 6] | 6.65 | – | – | – | – | – | – | – | – | –
